Legend:
[1] = tested on: cytokine (IL-1 and IFN-γ) insufflated rats; assay: IL-1 and IFN-γ insufflation inflammatory acute lung injury (ARDS) in rats; assay type: in vivo
Description: Insufflating IL-1 and interferon-γ (IFN-γ) produced an inflammatory acute lung injury (ARDS) in rats 24 hours later (9). Cytokine insufflated rats had increased lung lavage LDH concentrations (FIG. 2A) and neutrophil numbers (FIG. 2B) compared to saline insufflated control rats. […] Lavage LDH levels paralleled other measures of lung injury including increased epithelial-derived cytokeratin 18 and endothelial-derived angiotensin converting enzyme (ACE) levels and morphologic evidence of inflammation and injury.
Remarkably, protection occurred with ERGO administered post-insult even after some neutrophils had invaded the lung.
[…] Each value is the mean +/−SEM of 3 to 6 determinations.

[2] = tested on: IL-1 insufflated rats; assay: IL-1 insufflation inflammatory acute lung injury (ARDS) in rats; assay type: in vivo; conditions: NAC 150 mg/kg intravenously either just before or 2½ hours after IL-1 insufflation; 5 hours; compared to untreated IL-1 insufflated rats
Description: Insufflating IL-1 produced an inflammatory acute lung injury (ARDS, FIG. 1A) in rats 5 hours later, which was associated with increases in lung lavage neutrophils (FIG. 1B), expired H2O2 levels (FIG. 1C) and lung GSSG levels (FIG. 1D). In contrast, rats administered NAC (150 mg/kg intravenously) either just before or 2½ hours after IL-1 insufflation had decreased lung leak index, lung lavage neutrophil numbers, expired H2O2 levels and lung GSSG levels compared to untreated rats insufflated with IL-1.

[3] = single intravenous bolus 15 mg/kg, 1 hour before cytokine insufflation, compared to untreated cytokine insufflated rats
[4] = single intravenous bolus 150 mg/kg, 18 hours after cytokine insufflation, compared to untreated cytokine insufflated rats
[5] = single intravenous injection 150 mg/kg, 1 hour before IL-1 and IFN-γ insufflation, 24 hours

SMILES | lung injury [1, 3] | lung neutrophils [1, 3] | lung neutrophil numbers [1, 4] | markers of alveolar capillary membrane injury [1, 4] | lung inflammation ([1]; single intravenous bolus 150 mg/kg, 18 hours after cytokine insufflation, data not shown) | lung lavage LDH concentrations [1, 5] | lung lavage neutrophil concentrations [1, 5] | lung lavage total leukocyte concentrations [1, 5] | expired H2O2 levels [2] | lung GSSG levels [2] | lung lavage neutrophil numbers [2] | lung leak index [2]
C[N+](C)(C)[C@@H](Cc1c[nH]c(=S)[nH]1)C(=O)[O-] [ERGO, ergothioneine] | less | less | reduction in the severity | reduction in the severity | reduction in the severity | decreased | decreased | decreased | – | – | – | –
CC(=O)N[C@@H](CS)C(=O)O [NAC, N-acetylcysteine] | – | – | – | – | – | – | – | – | decreased | decreased | decreased | decreased

Reference: patent US9383348B2, “Compositions and methods for treating lung disorders” (priority 2008, dated 2016)
